Assay results: ChEMBL document CHEMBL1208752, “Selective delivery of 2-hydroxy APA to Trypanosoma brucei using the melamine motif” (Bioorg Med Chem Lett, 2010); call rule not given here

How the values were obtained:
[1] = tested on: Trypanosoma brucei brucei; experiment: Antitrypanosomal activity against tbAT1 deficient Trypanosoma brucei brucei at 100 uM after 2 days by alamar blue assay; type: functional, organism-based
[2] = tested on: Trypanosoma brucei brucei; experiment: Antitrypanosomal activity against wild type Trypanosoma brucei brucei expressing P2 transporter at 100 uM after 2 days by alamar blue assay; type: functional, organism-based

EC50 [1] | EC50 [2] | Structure (SMILES)
Not Active |  | CC(Nc1nc(N)nc(N)n1)C(=O)OC(CN)CON.Cl.Cl (centres undefined)
 | Not Active | Cl.Cl.NCC(O)CON (centres undefined)
Not Active |  | Cl.Cl.NCC(CON)OC(=O)CCNc1nc(N)nc(N)n1 (centres undefined)
Not Active |  | Cl.Cl.NCC(CON)OC(=O)CNc1nc(N)nc(N)n1 (centres undefined)
